Results on one compound are retold here after publication PMC9115111, “Metalloprotease Gp63-Targeting Novel Glycoside Exhibits Potential Antileishmanial Activity” (Frontiers in Cellular and Infection Microbiology, 2022).

By IC50 is commonly meant the concentration at which inhibition is half-maximal. The low end stands for greater potency in that assay, the high end for weaker potency in that assay. Usually CC50 stands for the concentration giving 50% cytotoxicity. A low value points to greater toxicity to the cells.

Data set [1] has as its system promastigotes of clinical isolate of PKDL strain, BS12 of L. donovani. Put plainly: LDH cytotoxicity assay on promastigotes of clinical PKDL isolate BS12. The format is cell-based. The following applies: Leishmania donovani, LDH assay 72 h. Here is the method: Promastigote forms of L. donovani (MHOM/IN/1983/AG83) were cultured at 26°C in M199 (GIBCO, India), pH 7.4, supplemented with 10% (v/v) inactivated fetal bovine serum (FBS, GIBCO, India) and 0.02 mg/ml gentamycin (Life Technologies, USA). The clinical isolate of PKDL, BS12, was obtained as a gift from Prof. Mitali Chatterjee [Department of Pharmacology, Institute of Postgraduate Medical Education and Research (IPGMER), Kolkata, India]. […]
AG83 strain of L. donovani were exposed to various Gly compound concentrations (100 nM–100 µM) in a 96-well microtiter plate (100 µl/well volume) and were incubated for 72 h at 26°C. […] The percent cytotoxicity of test compounds was calculated by normalizing with amphotericin B as 100%. Further percentage growth inhibition was calculated using the formula: […]
We further evaluated the effect the Gly2 on the clinical isolate of PKDL strain, BS12 of L. donovani ([Sengupta et al., 2019]). […] Along with Gly2, we also evaluated the cytotoxic effects of 12 compounds on L. donovani promastigotes derived from clinical isolates of PKDL strain at 5 µM ( Supplementary Figure S2 ).

Another data set has as its target T1, LdGp63 (Leishmania donovani, UniProt P23223).
T1 construct: endogenous in cells; host or cells: Leishmania donovani promastigotes (AG83 lab strain per abstract)
In words: Cellular thermal shift assay (CETSA) in promastigotes. Format: binding. The following applies: 5 µM, 24 h, heated to 80°C; Gp63 destabilized in untreated lysate. Here is the method: Control cells were incubated with an equal volume of a vehicle. Following incubation, the parasites were washed with PBS to remove excess drug and harvested in 200 μl of a lysis solution (50 mM HEPES, 150 mM NaCl, 1% Triton X-100 and 1% IGEPAL, 1 mM phenylmethyl sulfonyl fluoride). The lysates were centrifuged at 14,000 g for 20 min at 4°C, and supernatants were transferred to new tubes. Furthermore, the protein concentration was measured using the Pierce BCA protein assay kit. After preparation of lysates, 30 μl (0.8 mg/ml) aliquots of the supernatants were heated individually on a Thermomixer compact (Eppendorf) at different temperatures for 7 min and then cooled at room temperature for 3 min. CETSA samples were separated by SDS-PAGE, and immunoblotting was performed as described previously using a mouse polyclonal anti-LdGp63 catalytic domain antibody (1:500) ([Chakrabarti et al., 2021]).

For data set [2], the system named is L. donovani promastigotes. Put plainly: JC-1 mitochondrial membrane potential in promastigotes. The format is cell-based, Leishmania donovani. Particulars: treated promastigotes vs control, 24 h. Here is the method:
Mitochondrial membrane (Δψm) potential was examined using 5,6-dichloro-2-[3-(5,6-dichloro-1,3-diethyl-1,3-dihydro-2H-benzimidazol-2-ylidene)-1propenyl]-1,3-diethyl-,iodide (JC-1 dye) (Life Technologies, USA) as a probe. Treated and untreated groups were incubated for 24 h. Cells were washed with PBS and JC-1 labeled, and samples were analyzed through FACS diva (Beckton-Dickinson, Pharmingen). The approximate fluorescence excitation/emission maxima of 514/529 nm for monomeric form and 585/590 nm for J-aggregate form were used. The labeled cells were also allowed to adhere to glass slides for visualization under fluorescence microscope (Nikon Ti eclipse, USA) ([Shivappagowdar et al., 2019]).

Data set [3] relates to J774.A1 murine macrophage cells. Put plainly: MTT cell viability assay on macrophages. The format is cell-based. Particulars: MTT assay. Here is the method:
(§1) The J774.A1 murine macrophage cells were grown in Roswell Park Memorial Institute (RPMI) 1640 medium in the presence of 10% (v/v) FBS and 100 U/ml penicillin−100 µg/ml streptomycin (Gibco, Invitrogen, Thermo Fisher Scientific, NY, USA) at 37°C (humidified) and 5% CO2. […] Madin–Darby canine kidney (MDCK) cells were obtained from the National Centre for Cell Science, Pune, India. MDCK cells were derived from the kidney tissue of an adult female Cocker Spaniel. These were grown in Dulbecco’s modified Eagle’s minimal essential medium (DMEM) in the presence of 10% (v/v) FBS and 100 U/ml penicillin−100 µg/ml streptomycin (Gibco, Invitrogen, Thermo Fisher Scientific, NY, USA) at 37°C (humidified) and 5% CO2 ([Ayana et al., 2018]; [Shivappagowdar et al., 2021]).
(§2) All the compounds were dissolved in dimethyl sulfoxide (DMSO) (Sigma-Aldrich) for 1 mM stock solution and were screened against promastigotes at a concentration of 5 µM. For Glycosides (Gly) 2, 6, and 8, a range of concentrations starting from 100 nM to 100 µM were screened against promastigote forms of parasite and mammalian cells. Parasites (AG83 and PKDL strain) treated with amphotericin B (3 µg/ml) (Sigma-Aldrich) were maintained as the positive control.
(§3) To evaluate the cytotoxic effects of 12 compounds on L. donovani promastigotes, LDH assay was performed. This assay involves the reduction of tetrazolium salts to formazan during LDH-mediated catalysis of lactate to pyruvate, which can be detected at […]. Rate of formazan formation is proportional to the release of LDH through damaged cell membranes. For the preliminary screening, the promastigotes were incubated with 12 compounds at a single concentration of 5 µM for a period of 72 h, and the released LDH was estimated ( Supplementary Figure S1A ). Amphotericin B-treated promastigotes were taken as the positive control. […] Having observed the antileishmanial effect of Gly2 on growth and proliferation of promastigotes, we next investigated the cytotoxicity of Gly2 on mammalian cells (MDCK, J774.1A) through MTT (3-(4, 5-dimethylthiazolyl-2)-2, 5-diphenyltetrazolium bromide) cell viability assay ( Supplementary Figures S1B, C ). […] The CC50 values of Gly2 analog was in the micromolar range. The selectivity index (SI) for the compound was calculated as the ratio between cytotoxicity (CC50) and activity (IC50) against promastigotes ( Table 1 ).
Background: Formazan colour is commonly taken as a measure of viable cells.

The nature of data set [4]: MTT cell viability assay on macrophages. The following applies: mouse, J774.A1 macrophage cells; Table 1; macrophages. The format is cell-based, murine. Here is the method:
as §1, §2, §3

T1 sequence (P23223 88-565): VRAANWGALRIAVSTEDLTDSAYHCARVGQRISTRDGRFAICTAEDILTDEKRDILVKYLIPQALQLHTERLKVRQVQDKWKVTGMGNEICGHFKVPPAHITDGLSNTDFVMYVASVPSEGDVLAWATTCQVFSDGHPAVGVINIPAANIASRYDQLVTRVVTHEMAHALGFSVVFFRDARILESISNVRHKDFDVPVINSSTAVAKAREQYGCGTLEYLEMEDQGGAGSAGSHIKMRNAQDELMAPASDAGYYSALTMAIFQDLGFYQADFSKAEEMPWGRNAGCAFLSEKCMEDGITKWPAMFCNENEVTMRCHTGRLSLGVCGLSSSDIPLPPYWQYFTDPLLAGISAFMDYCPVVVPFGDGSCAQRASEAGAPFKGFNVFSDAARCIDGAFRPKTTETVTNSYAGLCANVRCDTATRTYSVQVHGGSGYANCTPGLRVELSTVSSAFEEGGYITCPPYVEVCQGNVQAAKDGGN

In data set [1], `CC(C)CCOC1O[C@H](CO)[C@@H](O)[C@H](O)[C@H]1O` (some centres unmarked) [Gly2] showed an IC50 of 1.97 µM. For the same compound, the “thermostability of Gp63 in treated lysates (immunoblot)” value on LdGp63 is recorded as “stable at higher temperature”. For the same compound, the “mitochondrial uptake of JC-1 dye (ΔΨm)” value in data set [2] was “significantly decreased”. The “cytotoxicity in macrophage cells” value in data set [3] is recorded as “minimum level of cytotoxicity”. In addition, the CC50 in data set [4] worked out at 2900 µM.
